“And” between values parts separate entries of the source, which are not always exact repeats. Identical values can stand only once. One block for each molecule: values may come before it.
Legend:
[1] = design: method as in PMID 18246556, doi:10.1016/S0277-5387(99)00369-1, doi:10.1351/pac200577081445; conditions: remaining carboxylic acid O of DOTA in the Co(II) complex; cited from earlier work
KB tumor bearing mice = test: In vivo biodistribution in KB tumor bearing mice; conditions: for Biodistribution, Tumor: KB tumor; for Biodistribution, Tumor / Biodistribution, Blood / Biodistribution, Bone / Biodistribution, Brain / Biodistribution, Fat / Biodistribution, Heart / Biodistribution, Intestine / Biodistribution, Kidney / Biodistribution, Liver / Biodistribution, Lungs / Biodistribution, Muscle / Biodistribution, Pancreas / Biodistribution, Skin / Biodistribution, Spleen / Biodistribution, Stomach: n = 4
Description: The in vivo behavior of each ^55Co-labeled folate was evaluated in KB-tumor bearing mice via biodistribution studies and PET/CT imaging. The biodistribution data are presented in Table 3 and Table 4, and are reported as the percent of injected activity per gram of tissue (% IA/g). Statistically significant differences in renal uptake between the two ^55Co-labeled compounds were observed. At 4 h post-injection, the radiofolates had uptake values in the kidneys of 36% ± 7% IA/g for [^55Co]Co-cm10 and 53% ± 12% IA/g for [^55Co]Co-rf42. […] Lower renal uptake for [^55Co]Co-cm10 may in part be due to slightly higher lipophilicity (supported by its larger molecular weight and a longer HPLC-retention time) in comparison to [^55Co]Co-rf42. […] Despite the differences in blood retention, tumor uptake for both radiofolates was similar with values of 17% ± 2% IA/g for [^55Co]Co-cm10 and 17% ± 4% IA/g for [^55Co]Co-rf42 at 4 h post-injection. […] The PET/CT images (presented as maximal intensity projections) confirm the biodistribution findings, highlighting the kidneys and tumors as the tissues with the highest activity uptake (Figure 5).
All animal studies were performed using a protocol approved by the Institutional Animal Care and Use Committee at the University of Alabama at Birmingham and were in compliance with national animal welfare policies and guidelines. Female athymic nude mice (Charles River, Wilmington, MA, USA), age 5 weeks, were implanted with KB cells via subcutaneous injection of 5 × 10^6 cells in 100 μL of PBS in the right shoulder. Tumors were allowed to grow for 12 days, during which time mice were fed Teklad Folic Acid Deficient Diet (Envigo, Huntingdon, United Kingdom).
Biodistribution and imaging studies for [^55Co]Co-cm10 and [^55Co]Co-rf42 were performed at 4 h and 24 h post-injection on groups of four mice. An additional cohort of mice was co-injected with a blocking dose of folic acid (100 μg), and biodistribution was performed at 4 h post-injection. At 2 h, mice were induced using 3% isoflurane and a 50 μL blood sample was taken retro-orbitally to monitor blood activity at an early time point.
The radiofolates were prepared as described with final molar activities of 835.5 MBq/μmol (22.6 mCi/μmol) for [^55Co]Co-cm10 and 957.6 MBq/μmol (25.9 mCi/μmol) for [^55Co]Co-rf42 in 60 μL reaction volume. Injections (100 µL) were prepared by dilution of the radiofolates in sterile saline (pH = 7). The final [^55Co]Co-cm10 injection contained 1,924 kBq (52 μCi) and 2.3 nmol cm10 and the final [^55Co]Co-rf42 injection contained 2,479 kBq […] and 2.4 nmol rf42. Blocking doses contained an additional 100 µg of folic acid and were prepared by diluting the radiofolates with 1 μg/μL folic acid in sterile saline (pH adjusted to 7). Mice were euthanized humanely by cervical dislocation following anaesthetization with 3% isoflurane, and their organs were collected, weighed and counted using an automatic gamma counter.

[2] = 4 h, co-administration of 100 µg folic acid blocking dose

Biodistribution, Tumor (KB tumor bearing mice; [2]): 8 ± 4 % IA/g
Biodistribution, Blood (KB tumor bearing mice; [2]): 17 ± 3 % IA/g
Biodistribution, Bone (KB tumor bearing mice; [2]): 2.2 ± 0.8 % IA/g
Biodistribution, Brain (KB tumor bearing mice; [2]): 0.6 ± 0.2 % IA/g
Biodistribution, Fat (KB tumor bearing mice; [2]): 4 ± 1 % IA/g
Biodistribution, Heart (KB tumor bearing mice; [2]): 4.2 ± 0.7 % IA/g
Biodistribution, Intestine (KB tumor bearing mice; [2]): 2.3 ± 0.4 % IA/g
Biodistribution, Kidney (KB tumor bearing mice; [2]): 16 ± 4 % IA/g
Biodistribution, Liver (KB tumor bearing mice; [2]): 3.5 ± 0.5 % IA/g
Biodistribution, Lungs (KB tumor bearing mice; [2]): 7 ± 3 % IA/g
Biodistribution, Muscle (KB tumor bearing mice; [2]): 2.1 ± 0.7 % IA/g
Biodistribution, Pancreas (KB tumor bearing mice; [2]): 2.4 ± 0.7 % IA/g
Biodistribution, Skin (KB tumor bearing mice; [2]): 5 ± 1 % IA/g
Biodistribution, Spleen (KB tumor bearing mice; [2]): 2.2 ± 0.4 % IA/g
Biodistribution, Stomach (KB tumor bearing mice; [2]): 1.5 ± 0.1 % IA/g
Biodistribution, Blood (KB tumor bearing mice; 4 h post-injection): 14 % IA/g and 13.8 ± 0.8 % IA/g
Biodistribution, Bone (KB tumor bearing mice; 4 h post-injection): 1.8 ± 0.6 % IA/g
Biodistribution, Brain (KB tumor bearing mice; 4 h post-injection): 0.8 ± 0.1 % IA/g
Biodistribution, Fat (KB tumor bearing mice; 4 h post-injection): 5 ± 1 % IA/g
Biodistribution, Heart (KB tumor bearing mice; 4 h post-injection): 4.7 ± 0.6 % IA/g
Biodistribution, Intestine (KB tumor bearing mice; 4 h post-injection): 1.9 ± 0.3 % IA/g
Biodistribution, Liver (KB tumor bearing mice; 4 h post-injection): 3.7 ± 0.6 % IA/g
Biodistribution, Lungs (KB tumor bearing mice; 4 h post-injection): 5.4 ± 0.6 % IA/g
Biodistribution, Muscle (KB tumor bearing mice; 4 h post-injection): 2.4 ± 0.9 % IA/g
Biodistribution, Pancreas (KB tumor bearing mice; 4 h post-injection): 2.4 ± 0.7 % IA/g
Biodistribution, Skin (KB tumor bearing mice; 4 h post-injection): 6 ± 2 % IA/g
Biodistribution, Spleen (KB tumor bearing mice; 4 h post-injection): 2.0 ± 0.4 % IA/g
Biodistribution, Stomach (KB tumor bearing mice; 4 h post-injection): 0.8 ± 0.2 % IA/g
Biodistribution, Blood (KB tumor bearing mice; 24 h post-injection): 2.6 ± 0.3 % IA/g
Biodistribution, Bone (KB tumor bearing mice; 24 h post-injection): 0.8 ± 0.2 % IA/g
Biodistribution, Brain (KB tumor bearing mice; 24 h post-injection): 0.45 ± 0.08 % IA/g
Biodistribution, Fat (KB tumor bearing mice; 24 h post-injection): 3 ± 2 % IA/g
Biodistribution, Heart (KB tumor bearing mice; 24 h post-injection): 1.7 ± 0.2 % IA/g
Biodistribution, Intestine (KB tumor bearing mice; 24 h post-injection): 0.92 ± 0.08 % IA/g
Biodistribution, Kidney (KB tumor bearing mice; 24 h post-injection): 30 ± 2 % IA/g
Biodistribution, Liver (KB tumor bearing mice; 24 h post-injection): 1.9 ± 0.3 % IA/g
Biodistribution, Lungs (KB tumor bearing mice; 24 h post-injection): 1.9 ± 0.3 % IA/g
Biodistribution, Muscle (KB tumor bearing mice; 24 h post-injection): 1.3 ± 0.3 % IA/g
Biodistribution, Pancreas (KB tumor bearing mice; 24 h post-injection): 1.4 ± 0.2 % IA/g
Biodistribution, Skin (KB tumor bearing mice; 24 h post-injection): 7 ± 3 % IA/g
Biodistribution, Spleen (KB tumor bearing mice; 24 h post-injection): 1.0 ± 0.1 % IA/g
Biodistribution, Stomach (KB tumor bearing mice; 24 h post-injection): 0.34 ± 0.09 % IA/g
Compound: Nc1nc2ncc(CNc3ccc(C(=O)N[C@@H](CCC(=O)NC(CCCCNC(=O)CN4CCN(CC(=O)O)CCN(CC(=O)O)CCN(CC(=O)O)CC4)C(=O)NC(CCCCNC(=O)CCCc4ccc(I)cc4)C(=O)O)C(=O)O)cc3)nc2c(=O)[nH]1.[55Co] (some centres unmarked) [[^55Co]Co-cm10]
pKa [1]: 4.04

Biodistribution, Tumor (KB tumor bearing mice; [2]): 7 ± 2 % IA/g
Biodistribution, Blood (KB tumor bearing mice; [2]): 15 ± 2 % IA/g
Biodistribution, Bone (KB tumor bearing mice; [2]): 1.7 ± 0.5 % IA/g
Biodistribution, Brain (KB tumor bearing mice; [2]): 0.5 ± 0.1 % IA/g
Biodistribution, Fat (KB tumor bearing mice; [2]): 2.7 ± 0.6 % IA/g
Biodistribution, Heart (KB tumor bearing mice; [2]): 4 ± 1 % IA/g
Biodistribution, Intestine (KB tumor bearing mice; [2]): 2.2 ± 0.3 % IA/g
Biodistribution, Kidney (KB tumor bearing mice; [2]): 12 ± 4 % IA/g
Biodistribution, Liver (KB tumor bearing mice; [2]): 4 ± 1 % IA/g
Biodistribution, Lungs (KB tumor bearing mice; [2]): 5.6 ± 0.3 % IA/g
Biodistribution, Muscle (KB tumor bearing mice; [2]): 1.5 ± 0.3 % IA/g
Biodistribution, Pancreas (KB tumor bearing mice; [2]): 2.2 ± 0.2 % IA/g
Biodistribution, Skin (KB tumor bearing mice; [2]): 3.5 ± 0.8 % IA/g
Biodistribution, Spleen (KB tumor bearing mice; [2]): 2.1 ± 0.3 % IA/g
Biodistribution, Stomach (KB tumor bearing mice; [2]): 1.1 ± 0.5 % IA/g
Biodistribution, Blood (KB tumor bearing mice; 4 h post-injection): 8 % IA/g and 8 ± 3 % IA/g
Biodistribution, Bone (KB tumor bearing mice; 4 h post-injection): 1.3 ± 0.2 % IA/g
Biodistribution, Brain (KB tumor bearing mice; 4 h post-injection): 0.7 ± 0.1 % IA/g
Biodistribution, Fat (KB tumor bearing mice; 4 h post-injection): 3.2 ± 0.9 % IA/g
Biodistribution, Heart (KB tumor bearing mice; 4 h post-injection): 2.9 ± 0.4 % IA/g
Biodistribution, Intestine (KB tumor bearing mice; 4 h post-injection): 2.2 ± 0.5 % IA/g
Biodistribution, Liver (KB tumor bearing mice; 4 h post-injection): 3.8 ± 0.6 % IA/g
Biodistribution, Lungs (KB tumor bearing mice; 4 h post-injection): 4 ± 1 % IA/g
Biodistribution, Muscle (KB tumor bearing mice; 4 h post-injection): 1.6 ± 0.4 % IA/g
Biodistribution, Pancreas (KB tumor bearing mice; 4 h post-injection): 2.4 ± 0.5 % IA/g
Biodistribution, Skin (KB tumor bearing mice; 4 h post-injection): 8 ± 1 % IA/g
Biodistribution, Spleen (KB tumor bearing mice; 4 h post-injection): 1.5 ± 0.3 % IA/g
Biodistribution, Stomach (KB tumor bearing mice; 4 h post-injection): 0.8 ± 0.4 % IA/g
Biodistribution, Blood (KB tumor bearing mice; 24 h post-injection): 1.0 ± 0.4 % IA/g
Biodistribution, Bone (KB tumor bearing mice; 24 h post-injection): 0.6 ± 0.2 % IA/g
Biodistribution, Brain (KB tumor bearing mice; 24 h post-injection): 0.4 ± 0.1 % IA/g
Biodistribution, Fat (KB tumor bearing mice; 24 h post-injection): 2.7 ± 0.2 % IA/g
Biodistribution, Heart (KB tumor bearing mice; 24 h post-injection): 2.0 ± 0.4 % IA/g
Biodistribution, Intestine (KB tumor bearing mice; 24 h post-injection): 0.8 ± 0.2 % IA/g
Biodistribution, Kidney (KB tumor bearing mice; 24 h post-injection): 46 ± 14 % IA/g
Biodistribution, Liver (KB tumor bearing mice; 24 h post-injection): 2.9 ± 0.5 % IA/g
Biodistribution, Lungs (KB tumor bearing mice; 24 h post-injection): 1.5 ± 0.4 % IA/g
Biodistribution, Muscle (KB tumor bearing mice; 24 h post-injection): 1.2 ± 0.6 % IA/g
Biodistribution, Pancreas (KB tumor bearing mice; 24 h post-injection): 1.9 ± 0.3 % IA/g
Biodistribution, Skin (KB tumor bearing mice; 24 h post-injection): 6 ± 2 % IA/g
Biodistribution, Spleen (KB tumor bearing mice; 24 h post-injection): 0.6 ± 0.2 % IA/g
Biodistribution, Stomach (KB tumor bearing mice; 24 h post-injection): 0.5 ± 0.2 % IA/g
tumor-to-kidney ratio (KB tumor bearing mice; compared with [^64Cu]Cu-rf42 and [^68Ga]Ga-rf42, Figure 6): lowest
Compound: Nc1nc2ncc(CNc3ccc(C(=O)N[C@@H](CCC(=O)NC(CCCCNC(=O)CCC(C(=O)O)N4CCN(CC(=O)O)CCN(CC(=O)O)CC4)C(=O)NC(CCCCNC(=O)CCCc4ccc(I)cc4)C(=O)O)C(=O)O)cc3)nc2c(=O)[nH]1.[55Co] (some centres unmarked) [[^55Co]Co-rf42]

From publication PMC6958329, “New ^55Co-labeled Albumin-Binding Folate Derivatives as Potential PET Agents for Folate Receptor Imaging” (Pharmaceuticals, 2019)
